Results reported in US12662465B2, “EGFR inhibitors” (Blueprint Medicines Corporation, priority 2021, dated 2026).
Read-outs that look alike come from different tables or passages of the source. Values belong to the compound of their own block, whether it stands above or below them.

Columns and labels:
[1] = molecular target: T1, EGFR L858R (Homo sapiens, UniProt P00533, L858R); assay: Biochemical EGFR inhibition assay (Caliper mobility shift), EGFR L858R; details: read-out: Enz EGFR_L858R IC50
T1 construct: purchased SignalChem E10-122BG

[2] = molecular target: T2, EGFR (d746-750) (Homo sapiens, UniProt P00533, DEL746-750); assay: Biochemical EGFR inhibition assay (Caliper mobility shift), EGFR (d746-750); details: read-out: Enz EGFR_Exon19-del746-750 IC50
T2 construct: purchased SignalChem E10-122JG

[3] = molecular target: intracellular phosphorylation of EGFR (Tyr1068) in PC-9 cells (Ex19Del) (Homo sapiens, UniProt P00533, DEL746-750); assay: PC-9 pEGFR AlphaLISA assay; assay type: cell-based; details: 4 hours compound incubation, read-out: Ext pEGFR_PC-9 Ex19Del IC50
[4] = 1.0 mM ATP or ATP Km, room temperature (25° C.)

Chain of intracellular phosphorylation of EGFR (Tyr1068) in PC-9 cells (Ex19Del) (P00533 with tags, fused parts or gaps DEL746-750): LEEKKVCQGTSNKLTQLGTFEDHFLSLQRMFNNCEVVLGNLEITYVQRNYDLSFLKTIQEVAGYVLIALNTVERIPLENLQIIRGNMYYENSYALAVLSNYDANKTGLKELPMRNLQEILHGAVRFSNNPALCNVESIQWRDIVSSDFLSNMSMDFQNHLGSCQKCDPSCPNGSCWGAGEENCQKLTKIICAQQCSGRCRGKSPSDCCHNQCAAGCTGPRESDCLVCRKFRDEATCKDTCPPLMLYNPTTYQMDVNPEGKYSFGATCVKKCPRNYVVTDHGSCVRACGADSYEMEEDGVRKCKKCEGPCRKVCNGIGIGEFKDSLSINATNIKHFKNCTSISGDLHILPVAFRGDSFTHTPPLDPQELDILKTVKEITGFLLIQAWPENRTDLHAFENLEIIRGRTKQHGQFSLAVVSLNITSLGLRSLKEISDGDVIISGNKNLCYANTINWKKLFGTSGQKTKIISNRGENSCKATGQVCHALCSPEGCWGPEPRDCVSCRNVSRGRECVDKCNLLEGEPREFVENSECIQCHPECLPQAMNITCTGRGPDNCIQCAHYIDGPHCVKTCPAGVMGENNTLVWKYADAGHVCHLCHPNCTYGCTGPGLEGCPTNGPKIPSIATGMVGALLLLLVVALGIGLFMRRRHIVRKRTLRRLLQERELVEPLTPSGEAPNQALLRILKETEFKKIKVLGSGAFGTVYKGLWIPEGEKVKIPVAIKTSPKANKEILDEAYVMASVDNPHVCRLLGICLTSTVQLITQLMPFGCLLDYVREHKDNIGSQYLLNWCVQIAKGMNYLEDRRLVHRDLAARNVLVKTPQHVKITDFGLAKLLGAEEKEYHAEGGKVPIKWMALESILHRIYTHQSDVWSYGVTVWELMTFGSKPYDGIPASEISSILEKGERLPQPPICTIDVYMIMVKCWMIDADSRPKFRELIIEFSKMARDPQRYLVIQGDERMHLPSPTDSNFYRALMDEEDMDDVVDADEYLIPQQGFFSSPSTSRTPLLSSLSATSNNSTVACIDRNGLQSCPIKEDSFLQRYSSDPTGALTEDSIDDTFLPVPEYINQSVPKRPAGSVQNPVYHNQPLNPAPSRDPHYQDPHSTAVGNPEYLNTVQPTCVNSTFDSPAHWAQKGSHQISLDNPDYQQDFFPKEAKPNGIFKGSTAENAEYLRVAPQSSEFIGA
T1 sequence (P00533 25-1210 L858R): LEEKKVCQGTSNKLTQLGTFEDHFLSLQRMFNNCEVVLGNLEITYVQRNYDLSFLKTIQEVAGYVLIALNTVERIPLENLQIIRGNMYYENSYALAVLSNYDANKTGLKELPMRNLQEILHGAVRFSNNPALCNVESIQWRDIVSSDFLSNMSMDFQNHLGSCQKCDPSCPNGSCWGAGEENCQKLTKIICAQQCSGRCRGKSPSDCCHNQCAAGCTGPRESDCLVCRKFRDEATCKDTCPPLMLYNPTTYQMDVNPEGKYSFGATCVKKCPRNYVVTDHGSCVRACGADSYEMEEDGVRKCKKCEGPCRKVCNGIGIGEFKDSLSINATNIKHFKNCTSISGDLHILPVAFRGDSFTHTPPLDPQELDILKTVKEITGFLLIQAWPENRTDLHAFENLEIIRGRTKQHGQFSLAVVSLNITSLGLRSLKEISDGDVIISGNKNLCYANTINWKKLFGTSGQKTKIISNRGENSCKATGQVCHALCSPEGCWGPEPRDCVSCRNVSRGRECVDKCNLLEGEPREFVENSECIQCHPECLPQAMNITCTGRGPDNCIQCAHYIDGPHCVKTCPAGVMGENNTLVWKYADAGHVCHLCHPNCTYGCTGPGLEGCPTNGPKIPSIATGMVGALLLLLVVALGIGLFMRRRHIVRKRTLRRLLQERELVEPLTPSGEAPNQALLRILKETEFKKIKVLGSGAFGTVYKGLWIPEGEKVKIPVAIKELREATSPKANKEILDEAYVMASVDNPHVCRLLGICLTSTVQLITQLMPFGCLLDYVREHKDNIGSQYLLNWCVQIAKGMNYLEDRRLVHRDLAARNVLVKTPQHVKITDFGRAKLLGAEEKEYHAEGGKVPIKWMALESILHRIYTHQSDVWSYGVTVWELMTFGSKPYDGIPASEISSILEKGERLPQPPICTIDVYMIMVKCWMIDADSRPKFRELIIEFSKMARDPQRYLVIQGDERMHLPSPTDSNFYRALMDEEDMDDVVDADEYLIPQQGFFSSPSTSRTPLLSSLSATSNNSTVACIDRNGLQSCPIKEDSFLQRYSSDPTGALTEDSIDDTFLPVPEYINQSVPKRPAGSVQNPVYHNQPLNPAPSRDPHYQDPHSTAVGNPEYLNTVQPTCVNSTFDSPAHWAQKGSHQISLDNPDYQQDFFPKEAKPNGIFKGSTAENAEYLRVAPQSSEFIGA
T2 sequence (P00533 with tags, fused parts or gaps DEL746-750 limits assumed): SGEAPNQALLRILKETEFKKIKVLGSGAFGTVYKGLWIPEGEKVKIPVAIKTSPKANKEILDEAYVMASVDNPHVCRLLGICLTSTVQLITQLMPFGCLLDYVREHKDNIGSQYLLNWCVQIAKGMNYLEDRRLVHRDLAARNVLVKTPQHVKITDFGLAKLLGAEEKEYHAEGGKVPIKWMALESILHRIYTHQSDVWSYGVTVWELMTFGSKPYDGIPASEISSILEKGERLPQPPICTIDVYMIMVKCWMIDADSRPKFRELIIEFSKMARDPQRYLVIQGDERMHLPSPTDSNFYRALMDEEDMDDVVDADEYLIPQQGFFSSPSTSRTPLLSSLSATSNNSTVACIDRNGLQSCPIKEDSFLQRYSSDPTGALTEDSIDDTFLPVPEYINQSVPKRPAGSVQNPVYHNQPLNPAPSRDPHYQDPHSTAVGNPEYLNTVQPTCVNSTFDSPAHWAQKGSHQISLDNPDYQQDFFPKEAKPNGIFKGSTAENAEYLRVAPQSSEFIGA

SMILES: C[C@@H](CN(C)C)Oc1cc(N2CC3CC(C2)O3)cc2ncnc(Nc3ccc4ncccc4c3)c12 (single isomer, unassigned) [Example 68, 7-(6-oxa-3-azabicyclo[3.1.1]heptan-3-yl)-5-(((S)-1-(dimethylamino)propan-2-yl)oxy)-N-(quinolin-6-yl)quinazolin-4-amine or 7-(6-oxa-3-azabicyclo[3.1.1]heptan-3-yl)-5-(((R)-1-(dimethylamino)propan-2-yl)oxy)-N-(quinolin-6-yl)quinazolin-4-amine]
- IC50 [1, 4]: 10.1 to 50 nM
- IC50 [2, 4]: < 10 nM
- IC50 [3]: ≤ 10 nM

SMILES: CC[C@H](Oc1cc(-c2cnn(C)c2)cc2ncnc(Nc3ccc4ncccc4c3F)c12)C1COC1 (single isomer, unassigned) [Example 23, (S)—N-(5-fluoroquinolin-6-yl)-7-(1-methyl-1H-pyrazol-4-yl)-5-(1-(oxetan-3-yl)propoxy)quinazolin-4-amine or ((R)—N-(5-fluoroquinolin-6-yl)-7-(1-methyl-1H-pyrazol-4-yl)-5-(1-(oxetan-3-yl)propoxy)quinazolin-4-amine]
- IC50 [1, 4]: < 10 nM
- IC50 [2, 4]: < 10 nM
- IC50 [3]: ≤ 10 nM

SMILES: C[C@@H](Oc1cc(N2CC3CC(C2)O3)cc2ncnc(Nc3ccc4ncccc4c3F)c12)C1COC1 [Example 59, 7-(6-oxa-3-azabicyclo[3.1.1]heptan-3-yl)-N-(5-fluoroquinolin-6-yl)-5-((R)-1-(oxetan-3-yl)ethoxy)quinazolin-4-amine]
- IC50 [1]: < 10 nM
- IC50 [2]: < 10 nM
- IC50 [3]: ≤ 10 nM

SMILES: C[C@@H](Oc1cc(-c2cnn(C)c2)cc2ncnc(Nc3ccc4ncccc4c3F)c12)C(CO)CCl (stereo partly drawn) [Example 113, (3R)-2-(chloromethyl)-3-((4-((5-fluoroquinolin-6-yl)amino)-7-(1-methyl-1H-pyrazol-4-yl)quinazolin-5-yl)oxy)butan-1-ol]
- IC50 [1]: < 10 nM
- IC50 [2]: < 10 nM
- IC50 [3]: ≤ 10 nM

SMILES: CC(=O)N1CC2(C1)CN(c1cc(O[C@H](C)CN(C)C)c3c(Nc4ccc5ncccc5c4F)ncnc3c1)C2 [Example 154, (R)-1-(6-(5-((1-(dimethylamino)propan-2-yl)oxy)-4-((5-fluoroquinolin-6-yl)amino)quinazolin-7-yl)-2,6-diazaspiro[3.3]heptan-2-yl)ethan-1-one]
- IC50 [1]: < 10 nM
- IC50 [2]: < 10 nM
- IC50 [3]: ≤ 10 nM

SMILES: CN(C)C[C@H](Oc1cc(-c2cnn(C)c2)cc2ncnc(Nc3ccc4ncccc4c3F)c12)C(F)F (single isomer, unassigned) [Example 37, (S)-5-((3-(dimethylamino)-1,1-difluoropropan-2-yl)oxy)-N-(5-fluoroquinolin-6-yl)-7-(1-methyl-1H-pyrazol-4-yl)quinazolin-4-amine or (R)-5-((3-(dimethylamino)-1,1-difluoropropan-2-yl)oxy)-N-(5-fluoroquinolin-6-yl)-7-(1-methyl-1H-pyrazol-4-yl)quinazolin-4-amine]
- IC50 [1, 4]: < 10 nM
- IC50 [2, 4]: < 10 nM
- IC50 [3]: ≤ 10 nM

SMILES: C[C@H](CN(C)C)Oc1cc(N2C3COCC2C3)cc2ncnc(Nc3ccc4ncccc4c3F)c12 [Example 89, 7-(3-oxa-6-azabicyclo[3.1.1]heptan-6-yl)-5-(((R)-1-(dimethylamino)propan-2-yl)oxy)-N-(5-fluoroquinolin-6-yl)quinazolin-4-amine]
- IC50 [1]: > 50.1 nM
- IC50 [2]: > 50.1 nM
- IC50 [3]: > 50.1 nM

SMILES: C[C@H](CN(C)C)Oc1cc(N2CC3(CCS3(=O)=O)C2)cc2ncnc(Nc3ccc4ncccc4c3F)c12 [Example 97, (R)-6-(5-((1-(dimethylamino)propan-2-yl)oxy)-4-((5-fluoroquinolin-6-yl)amino)quinazolin-7-yl)-1-thia-6-azaspiro[3.3]heptane 1,1-dioxide]
- IC50 [1]: < 10 nM
- IC50 [2]: < 10 nM
- IC50 [3]: ≤ 10 nM

SMILES: C[C@@H](CN(C)C)Oc1cc(-c2cnn(C)c2)cc2ncnc(Nc3ccc4ncccc4c3)c12 (single isomer, unassigned) [Example 44, (S)-5-((1-(dimethylamino)propan-2-yl)oxy)-7-(1-methyl-1H-pyrazol-4-yl)-N-(quinolin-6-yl)quinazolin-4-amine or (R)-5-((1-(dimethylamino)propan-2-yl)oxy)-7-(1-methyl-1H-pyrazol-4-yl)-N-(quinolin-6-yl)quinazolin-4-amine]
- IC50 [1, 4]: < 10 nM
- IC50 [2, 4]: < 10 nM
- IC50 [3]: ≤ 10 nM

SMILES: C[C@@H](Oc1cc(-c2cnn(C)c2)cc2ncnc(Nc3ccc4ncc(F)cc4c3)c12)C1COC1 [Example 3, (R)—N-(3-fluoroquinolin-6-yl)-7-(1-methyl-1H-pyrazol-4-yl)-5-(1-(oxetan-3-yl)ethoxy)quinazolin-4-amine]
- IC50 [1]: < 10 nM
- IC50 [2]: < 10 nM
- IC50 [3]: ≤ 10 nM

SMILES: C[C@H](CN(C)C)Oc1cc(N2CC[C@@H](C(C)(C)O)C2)cc2ncnc(Nc3ccc4ncccc4c3F)c12 [Example 72, 2—((R)-1-(5-(((R)-1-(dimethylamino)propan-2-yl)oxy)-4-((5-fluoroquinolin-6-yl)amino)quinazolin-7-yl)pyrrolidin-3-yl)propan-2-ol]
- IC50 [1]: 10.1 to 50 nM
- IC50 [2]: < 10 nM
- IC50 [3]: 10.1 to 50 nM

Next, values leading:

- IC50 [1]: < 10 nM
- IC50 [2]: < 10 nM
- IC50 [3]: ≤ 10 nM
SMILES: C[C@H](CN(C)C)Oc1cc(-c2cn(C)nc2OC(F)F)cc2ncnc(Nc3ccc4ncccc4c3F)c12 [Example 118, (R)-7-(3-(difluoromethoxy)-1-methyl-1H-pyrazol-4-yl)-5-((1-(dimethylamino)propan-2-yl)oxy)-N-(5-fluoroquinolin-6-yl)quinazolin-4-amine]

- IC50 [1]: < 10 nM
- IC50 [2]: < 10 nM
- IC50 [3]: ≤ 10 nM
SMILES: COC1CCN(c2cc(O[C@H](C)CN(C)C)c3c(Nc4ccc5ncccc5c4F)ncnc3c2)C1 (mixture of isomers) [Example 86, 5—(((R)-1-(dimethylamino)propan-2-yl)oxy)-N-(5-fluoroquinolin-6-yl)-7-((R)-3-methoxypyrrolidin-1-yl)quinazolin-4-amine and 5-(((R)-1-(dimethylamino)propan-2-yl)oxy)-N-(5-fluoroquinolin-6-yl)-7-((S)-3-methoxypyrrolidin-1-yl)quinazolin-4-amine]

- IC50 [1]: < 10 nM
- IC50 [2]: < 10 nM
- IC50 [3]: ≤ 10 nM
SMILES: C[C@H](CN(C)C)Oc1cc(-c2cnn(C)c2)cc2ncnc(Nc3ccc4ncccc4c3F)c12 [Example 6, (R)-5-((1-(dimethylamino)propan-2-yl)oxy)-N-(5-fluoroquinolin-6-yl)-7-(1-methyl-1H-pyrazol-4-yl)quinazolin-4-amine]

- IC50 [1]: < 10 nM
- IC50 [2]: < 10 nM
- IC50 [3]: 10.1 to 50 nM
SMILES: C[C@H](CN(C)C)Oc1cc(N2CC3(CNC3)C2)cc2ncnc(Nc3ccc4ncccc4c3F)c12 [Example 152, (R)-5-((1-(dimethylamino)propan-2-yl)oxy)-N-(5-fluoroquinolin-6-yl)-7-(2,6-diazaspiro[3.3]heptan-2-yl)quinazolin-4-amine]

- IC50 [1, 4]: < 10 nM
- IC50 [2, 4]: < 10 nM
- IC50 [3]: ≤ 10 nM
SMILES: CO[C@@H]1CCN(c2cc(O[C@H](C)CN(C)C)c3c(Nc4ccc5ncccc5c4F)ncnc3c2)C1 (single isomer, unassigned) [Example 87a, 5-(((R)-1-(dimethylamino)propan-2-yl)oxy)-N-(5-fluoroquinolin-6-yl)-7-((R)-3-methoxypyrrolidin-1-yl)quinazolin-4-amine or 5-(((R)-1-(dimethylamino)propan-2-yl)oxy)-N-(5-fluoroquinolin-6-yl)-7-((S)-3-methoxypyrrolidin-1-yl)quinazolin-4-amine]

- IC50 [1]: 10.1 to 50 nM
- IC50 [2]: < 10 nM
- IC50 [3]: 10.1 to 50 nM
SMILES: C[C@H](CN(C)C)Oc1cc(-c2cnn(C)c2)cc2ncnc(Nc3ccc4ncc(F)cc4c3F)c12 [Example 104, (R)—N-(3,5-difluoroquinolin-6-yl)-5-((1-(dimethylamino)propan-2-yl)oxy)-7-(1-methyl-1H-pyrazol-4-yl)quinazolin-4-amine]

- IC50 [1]: > 50.1 nM
- IC50 [2]: 10.1 to 50 nM
- IC50 [3]: > 50.1 nM
SMILES: C[C@H](CN(C)C)Oc1cc(-c2cnn(C)c2)cc2ncnc(Nc3ccc4nccnc4c3F)c12 [Example 109, (R)-5-((1-(dimethylamino)propan-2-yl)oxy)-N-(5-fluoroquinoxalin-6-yl)-7-(1-methyl-1H-pyrazol-4-yl)quinazolin-4-amine]

- IC50 [1]: < 10 nM
- IC50 [2]: < 10 nM
- IC50 [3]: ≤ 10 nM
SMILES: COc1nn(C)cc1-c1cc(O[C@H](C)CN(C)C)c2c(Nc3ccc4ncccc4c3F)ncnc2c1 [Example 54, (R)-5-((1-(dimethylamino)propan-2-yl)oxy)-N-(5-fluoroquinolin-6-yl)-7-(3-methoxy-1-methyl-1H-pyrazol-4-yl)quinazolin-4-amine]

- IC50 [1]: < 10 nM
- IC50 [2]: < 10 nM
- IC50 [3]: ≤ 10 nM
SMILES: C[C@H](CN(C)C1CCC1)Oc1cc(-c2cnn(C)c2)cc2ncnc(Nc3ccc4ncccc4c3F)c12 [Example 115, (R)-5-((1-(cyclobutyl(methyl)amino)propan-2-yl)oxy)-N-(5-fluoroquinolin-6-yl)-7-(1-methyl-1H-pyrazol-4-yl)quinazolin-4-amine]

- IC50 [1]: 10.1 to 50 nM
- IC50 [2]: < 10 nM
- IC50 [3]: 10.1 to 50 nM
SMILES: CN(C)CCOc1cc(-c2cnn(C)c2)cc2ncnc(Nc3ccc4ncccc4c3F)c12 [Example 34, 5-(2-(dimethylamino)ethoxy)-N-(5-fluoroquinolin-6-yl)-7-(1-methyl-1H-pyrazol-4-yl)quinazolin-4-amine]

- IC50 [1]: < 10 nM
- IC50 [2]: < 10 nM
- IC50 [3]: ≤ 10 nM
SMILES: C[C@H](CN(C)C1CC1)Oc1cc(-c2cnn(C)c2)cc2ncnc(Nc3ccc4ncccc4c3F)c12 [Example 114, (R)-5-((1-(cyclopropyl(methyl)amino)propan-2-yl)oxy)-N-(5-fluoroquinolin-6-yl)-7-(1-methyl-1H-pyrazol-4-yl)quinazolin-4-amine]
